According to ChEMBL document CHEMBL4507288 (2021):

Key:
[1] = target: Alpha-2C adrenergic receptor (Homo sapiens, UniProt P18825); assay: GPCRScan assay: inhibition of Alpha2C; design: radioligand conc. used [nm] 0.5 – 1.0, parental cells stable MDCK
[2] = test system: Mast/stem cell growth factor receptor Kit (Homo sapiens), P10721 [V559D,V654A]; details: Compound concentration 1000.0 nM
[3] = target: Mitogen-activated protein kinase kinase kinase kinase 3 (Homo sapiens) (UniProt Q8IVH8); details: Compound concentration 1000.0 nM
[4] = target: Phosphatidylinositol 5-phosphate 4-kinase type-2 gamma (Homo sapiens) (UniProt Q8TBX8); details: Compound concentration 1000.0 nM
[5] = target: Phosphorylase b kinase gamma catalytic chain, skeletal muscle/heart isoform (Homo sapiens) (UniProt Q16816); details: Compound concentration 1000.0 nM
Chain of Phosphorylase b kinase gamma catalytic chain, skeletal muscle/heart isoform (Homo sapiens) (Q16816 whole entry, looked up, canonical isoform): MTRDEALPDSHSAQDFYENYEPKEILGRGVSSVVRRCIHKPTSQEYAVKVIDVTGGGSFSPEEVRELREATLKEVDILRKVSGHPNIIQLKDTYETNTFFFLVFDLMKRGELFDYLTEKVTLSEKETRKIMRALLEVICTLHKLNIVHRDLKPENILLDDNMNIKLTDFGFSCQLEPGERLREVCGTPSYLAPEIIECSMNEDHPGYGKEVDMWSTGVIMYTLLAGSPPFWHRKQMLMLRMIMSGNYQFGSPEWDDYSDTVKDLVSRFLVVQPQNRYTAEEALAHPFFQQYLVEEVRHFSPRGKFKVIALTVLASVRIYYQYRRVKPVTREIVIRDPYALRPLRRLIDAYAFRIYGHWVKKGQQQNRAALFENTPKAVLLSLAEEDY

[6] = target: Phosphatidylinositol 3-kinase catalytic subunit type 3 (Homo sapiens) (UniProt Q8NEB9); details: Compound concentration 1000.0 nM
[7] = target: cAMP-dependent protein kinase catalytic subunit alpha (Homo sapiens) (UniProt P17612); details: Compound concentration 1000.0 nM
[8] = target: Serine/threonine-protein kinase SIK1 (Homo sapiens) (UniProt P57059); details: Compound concentration 1000.0 nM
[9] = test system: Tyrosine-protein kinase ABL1 (Homo sapiens), P00519 [E255K]; details: Compound concentration 1000.0 nM
[10] = target: Myosin light chain kinase (Homo sapiens) (UniProt Q32MK0); details: Compound concentration 1000.0 nM
[11] = test system: Mast/stem cell growth factor receptor Kit (Homo sapiens), P10721 [V559D]; details: Compound concentration 1000.0 nM
[12] = target: Serine/threonine-protein kinase SIK2 (Homo sapiens) (UniProt Q9H0K1); details: Compound concentration 1000.0 nM
[13] = target: Atypical kinase COQ8B, mitochondrial (Homo sapiens) (UniProt Q96D53); details: Compound concentration 1000.0 nM
[14] = test system: Receptor-type tyrosine-protein kinase FLT3 (Homo sapiens), P36888 [UNDEFINED MUTATION]; details: Compound concentration 1000.0 nM
Chain of Receptor-type tyrosine-protein kinase FLT3 (Homo sapiens), P36888 [UNDEFINED MUTATION] (P36888 whole entry, looked up, change not shown): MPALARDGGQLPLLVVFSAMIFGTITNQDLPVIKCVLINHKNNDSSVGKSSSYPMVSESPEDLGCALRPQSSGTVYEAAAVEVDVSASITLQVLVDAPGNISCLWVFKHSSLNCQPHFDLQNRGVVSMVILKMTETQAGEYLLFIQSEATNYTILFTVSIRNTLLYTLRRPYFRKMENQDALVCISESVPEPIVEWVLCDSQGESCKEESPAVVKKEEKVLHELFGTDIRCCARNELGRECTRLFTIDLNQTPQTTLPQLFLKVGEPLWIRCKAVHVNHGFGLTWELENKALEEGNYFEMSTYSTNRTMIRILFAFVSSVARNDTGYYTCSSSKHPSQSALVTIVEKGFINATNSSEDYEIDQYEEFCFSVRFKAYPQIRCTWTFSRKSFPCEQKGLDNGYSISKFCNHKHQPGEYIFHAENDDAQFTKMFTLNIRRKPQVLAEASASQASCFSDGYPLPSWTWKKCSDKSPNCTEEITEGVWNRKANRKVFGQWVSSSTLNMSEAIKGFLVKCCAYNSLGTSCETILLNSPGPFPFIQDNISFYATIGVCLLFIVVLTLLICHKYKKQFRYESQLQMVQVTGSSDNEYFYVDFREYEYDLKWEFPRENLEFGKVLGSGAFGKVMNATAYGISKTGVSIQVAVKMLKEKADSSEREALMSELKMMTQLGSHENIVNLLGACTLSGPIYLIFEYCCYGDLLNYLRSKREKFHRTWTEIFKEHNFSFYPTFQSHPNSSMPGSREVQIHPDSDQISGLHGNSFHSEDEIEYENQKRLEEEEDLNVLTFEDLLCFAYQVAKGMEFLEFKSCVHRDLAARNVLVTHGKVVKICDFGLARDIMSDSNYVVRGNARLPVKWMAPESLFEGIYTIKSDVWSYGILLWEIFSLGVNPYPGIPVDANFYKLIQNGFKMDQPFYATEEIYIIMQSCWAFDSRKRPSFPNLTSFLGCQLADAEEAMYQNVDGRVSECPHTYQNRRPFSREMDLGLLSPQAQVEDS

[15] = target: Receptor-interacting serine/threonine-protein kinase 4 (Homo sapiens) (UniProt P57078); details: Compound concentration 1000.0 nM
[16] = target: G protein-coupled receptor kinase 3 (Homo sapiens) (UniProt P35626); details: Compound concentration 1000.0 nM
[17] = target: Ephrin type-B receptor 1 (Homo sapiens) (UniProt P54762); details: Compound concentration 1000.0 nM
[18] = target: Activin receptor type-2B (Homo sapiens) (UniProt Q13705); details: Compound concentration 1000.0 nM
[19] = target: Macrophage-stimulating protein receptor (Homo sapiens) (UniProt Q04912); details: Compound concentration 1000.0 nM
[20] = target: Receptor-interacting serine/threonine-protein kinase 2 (Homo sapiens) (UniProt O43353); details: Compound concentration 1000.0 nM
Chain of Receptor-interacting serine/threonine-protein kinase 2 (Homo sapiens) (O43353 whole entry): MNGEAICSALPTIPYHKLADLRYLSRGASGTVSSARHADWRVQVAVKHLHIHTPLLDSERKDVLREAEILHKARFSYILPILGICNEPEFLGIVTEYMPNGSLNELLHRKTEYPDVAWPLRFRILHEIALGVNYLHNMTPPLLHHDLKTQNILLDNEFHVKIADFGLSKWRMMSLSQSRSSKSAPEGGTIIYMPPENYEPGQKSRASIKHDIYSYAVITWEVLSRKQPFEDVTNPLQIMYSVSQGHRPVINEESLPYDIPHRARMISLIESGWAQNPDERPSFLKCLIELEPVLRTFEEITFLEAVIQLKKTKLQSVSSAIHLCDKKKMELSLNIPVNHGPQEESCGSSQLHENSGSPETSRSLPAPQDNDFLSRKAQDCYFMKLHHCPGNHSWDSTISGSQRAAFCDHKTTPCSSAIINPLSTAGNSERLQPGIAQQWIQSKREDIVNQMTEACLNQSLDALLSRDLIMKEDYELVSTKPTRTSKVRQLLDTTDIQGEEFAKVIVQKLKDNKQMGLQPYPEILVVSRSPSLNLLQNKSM

[21] = target: Mitogen-activated protein kinase 13 (Homo sapiens) (UniProt O15264); details: Compound concentration 1000.0 nM
[22] = test system: Tyrosine-protein kinase ABL1 (Homo sapiens), P00519 [F317L]; details: Compound concentration 1000.0 nM
[23] = target: Serine/threonine-protein kinase Nek2 (Homo sapiens) (UniProt P51955); details: Compound concentration 1000.0 nM
[24] = target: Serine/threonine-protein kinase 3 (Homo sapiens) (UniProt Q13188); details: Compound concentration 1000.0 nM
[25] = target: Phosphatidylinositol 4-phosphate 5-kinase type-1 alpha (Homo sapiens) (UniProt Q99755); details: Compound concentration 1000.0 nM
Chain of Phosphatidylinositol 4-phosphate 5-kinase type-1 alpha (Homo sapiens) (Q99755 whole entry): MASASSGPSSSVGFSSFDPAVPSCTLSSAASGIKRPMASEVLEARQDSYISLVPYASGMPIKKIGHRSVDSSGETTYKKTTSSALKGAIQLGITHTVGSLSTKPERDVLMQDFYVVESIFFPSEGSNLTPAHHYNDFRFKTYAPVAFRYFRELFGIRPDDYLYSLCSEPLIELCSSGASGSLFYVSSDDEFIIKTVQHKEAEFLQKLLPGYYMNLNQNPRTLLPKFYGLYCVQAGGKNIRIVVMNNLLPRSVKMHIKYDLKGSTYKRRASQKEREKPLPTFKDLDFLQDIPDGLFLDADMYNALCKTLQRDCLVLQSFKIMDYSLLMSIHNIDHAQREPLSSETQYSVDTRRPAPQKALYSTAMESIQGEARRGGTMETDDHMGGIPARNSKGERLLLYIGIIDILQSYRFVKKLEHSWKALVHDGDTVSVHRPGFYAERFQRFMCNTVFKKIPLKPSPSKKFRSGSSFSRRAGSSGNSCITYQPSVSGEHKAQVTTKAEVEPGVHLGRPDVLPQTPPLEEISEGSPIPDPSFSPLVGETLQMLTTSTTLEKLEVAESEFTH

[26] = target: Macrophage colony-stimulating factor 1 receptor (Homo sapiens) (UniProt P07333); details: Compound concentration 1000.0 nM
[27] = target: Platelet-derived growth factor receptor beta (Homo sapiens) (UniProt P09619); details: Compound concentration 1000.0 nM
[28] = target: Tyrosine-protein kinase JAK2 (Homo sapiens) (UniProt O60674); details: Compound concentration 1000.0 nM
Chain of Tyrosine-protein kinase JAK2 (Homo sapiens) (O60674 whole entry): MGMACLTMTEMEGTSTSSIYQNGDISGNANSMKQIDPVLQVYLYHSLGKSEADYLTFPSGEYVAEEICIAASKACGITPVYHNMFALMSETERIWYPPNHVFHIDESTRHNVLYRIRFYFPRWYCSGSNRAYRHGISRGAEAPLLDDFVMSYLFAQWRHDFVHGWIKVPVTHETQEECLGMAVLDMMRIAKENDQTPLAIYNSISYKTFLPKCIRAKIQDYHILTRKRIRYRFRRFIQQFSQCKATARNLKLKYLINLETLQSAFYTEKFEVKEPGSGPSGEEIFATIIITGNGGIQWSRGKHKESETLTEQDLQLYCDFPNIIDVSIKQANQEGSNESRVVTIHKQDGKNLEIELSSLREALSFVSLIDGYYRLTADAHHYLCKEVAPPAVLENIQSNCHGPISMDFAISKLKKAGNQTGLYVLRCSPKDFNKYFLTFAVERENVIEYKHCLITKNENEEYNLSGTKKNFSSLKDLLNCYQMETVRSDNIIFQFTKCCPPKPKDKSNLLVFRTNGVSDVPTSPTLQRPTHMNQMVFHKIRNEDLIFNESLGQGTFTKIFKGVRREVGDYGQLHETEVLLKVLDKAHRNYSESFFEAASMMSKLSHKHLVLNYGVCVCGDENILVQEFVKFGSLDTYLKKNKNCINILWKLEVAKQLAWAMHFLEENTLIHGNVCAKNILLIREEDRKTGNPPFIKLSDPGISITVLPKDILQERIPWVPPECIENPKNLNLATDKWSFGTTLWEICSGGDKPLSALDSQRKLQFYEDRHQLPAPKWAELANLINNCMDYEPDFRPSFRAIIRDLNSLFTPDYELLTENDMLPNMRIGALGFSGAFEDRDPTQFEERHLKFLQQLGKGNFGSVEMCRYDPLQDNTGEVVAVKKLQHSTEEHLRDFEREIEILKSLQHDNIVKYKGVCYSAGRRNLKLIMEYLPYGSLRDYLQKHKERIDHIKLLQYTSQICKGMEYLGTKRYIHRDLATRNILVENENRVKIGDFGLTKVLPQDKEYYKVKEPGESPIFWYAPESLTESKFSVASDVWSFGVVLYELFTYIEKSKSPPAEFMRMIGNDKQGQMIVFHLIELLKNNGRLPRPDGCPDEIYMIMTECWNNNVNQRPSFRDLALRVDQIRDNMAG

[29] = target: Calcium/calmodulin-dependent protein kinase kinase 2 (Homo sapiens) (UniProt Q96RR4); details: Compound concentration 1000.0 nM
[30] = target: Serine/threonine-protein kinase SIK3 (Homo sapiens) (UniProt Q9Y2K2); details: Compound concentration 1000.0 nM
[31] = target: Serine/threonine-protein kinase DCLK2 (Homo sapiens) (UniProt Q8N568); details: Compound concentration 1000.0 nM
[32] = target: Cyclin-dependent kinase 9 (Homo sapiens) (UniProt P50750); details: Compound concentration 1000.0 nM
[33] = target: Phosphorylase b kinase regulatory subunit alpha, liver isoform (Homo sapiens) (UniProt P46019); details: Compound concentration 1000.0 nM
Chain of Phosphorylase b kinase regulatory subunit alpha, liver isoform (Homo sapiens) (P46019 whole entry, canonical isoform): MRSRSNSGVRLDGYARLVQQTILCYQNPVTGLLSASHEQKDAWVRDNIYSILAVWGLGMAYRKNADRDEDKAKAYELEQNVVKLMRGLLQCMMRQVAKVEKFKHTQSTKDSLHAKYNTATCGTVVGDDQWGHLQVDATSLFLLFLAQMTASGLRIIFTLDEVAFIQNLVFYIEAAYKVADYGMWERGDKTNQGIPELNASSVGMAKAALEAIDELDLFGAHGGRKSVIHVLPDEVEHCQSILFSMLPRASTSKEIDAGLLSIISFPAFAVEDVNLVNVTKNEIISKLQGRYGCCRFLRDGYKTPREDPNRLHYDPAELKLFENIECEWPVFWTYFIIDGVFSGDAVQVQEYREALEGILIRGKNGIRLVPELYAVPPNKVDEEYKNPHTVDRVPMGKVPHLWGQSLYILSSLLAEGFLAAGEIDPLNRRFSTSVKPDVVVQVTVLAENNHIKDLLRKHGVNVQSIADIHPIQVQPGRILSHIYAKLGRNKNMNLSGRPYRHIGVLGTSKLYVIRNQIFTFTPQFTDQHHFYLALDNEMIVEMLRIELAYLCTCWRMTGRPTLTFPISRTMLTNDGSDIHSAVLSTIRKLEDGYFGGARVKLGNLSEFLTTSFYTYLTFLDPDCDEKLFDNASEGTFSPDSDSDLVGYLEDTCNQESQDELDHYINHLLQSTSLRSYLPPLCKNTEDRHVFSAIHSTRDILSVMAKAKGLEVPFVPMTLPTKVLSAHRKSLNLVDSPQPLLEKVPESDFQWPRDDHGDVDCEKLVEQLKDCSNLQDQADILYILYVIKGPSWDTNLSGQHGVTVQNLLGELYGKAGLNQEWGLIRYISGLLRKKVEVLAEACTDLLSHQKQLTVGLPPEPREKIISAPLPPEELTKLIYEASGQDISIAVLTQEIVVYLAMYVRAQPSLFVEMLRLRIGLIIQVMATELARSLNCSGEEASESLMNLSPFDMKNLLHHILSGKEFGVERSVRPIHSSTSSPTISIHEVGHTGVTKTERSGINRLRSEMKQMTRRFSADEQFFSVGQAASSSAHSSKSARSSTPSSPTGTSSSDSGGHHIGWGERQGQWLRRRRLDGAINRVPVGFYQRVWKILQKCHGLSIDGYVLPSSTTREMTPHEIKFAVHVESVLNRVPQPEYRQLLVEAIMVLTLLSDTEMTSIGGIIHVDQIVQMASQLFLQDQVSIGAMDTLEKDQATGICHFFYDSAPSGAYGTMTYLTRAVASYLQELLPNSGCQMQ

[34] = target: Aurora kinase C (Homo sapiens) (UniProt Q9UQB9); details: Compound concentration 1000.0 nM
[35] = target: Mitogen-activated protein kinase kinase kinase 14 (Homo sapiens) (UniProt Q99558); details: Compound concentration 1000.0 nM
[36] = test system: Epidermal growth factor receptor (Homo sapiens), P00533 [UNDEFINED MUTATION]; details: Compound concentration 1000.0 nM
[37] = target: Mitotic checkpoint serine/threonine-protein kinase BUB1 (Homo sapiens) (UniProt O43683); details: Compound concentration 1000.0 nM
[38] = target: Ephrin type-A receptor 8 (Homo sapiens) (UniProt P29322); details: Compound concentration 1000.0 nM
[39] = target: Ephrin type-A receptor 3 (Homo sapiens) (UniProt P29320); details: Compound concentration 1000.0 nM
[40] = target: Homeodomain-interacting protein kinase 3 (Homo sapiens) (UniProt Q9H422); details: Compound concentration 1000.0 nM
[41] = target: Death-associated protein kinase 1 (Homo sapiens) (UniProt P53355); details: Compound concentration 1000.0 nM
[42] = target: Tyrosine-protein kinase BTK (Homo sapiens) (UniProt Q06187); details: Compound concentration 1000.0 nM
[43] = target: Cytoplasmic tyrosine-protein kinase BMX (Homo sapiens) (UniProt P51813); details: Compound concentration 1000.0 nM
[44] = target: Myosin light chain kinase 2, skeletal/cardiac muscle (Homo sapiens) (UniProt Q9H1R3); details: Compound concentration 1000.0 nM
[45] = target: Activated CDC42 kinase 1 (Homo sapiens) (UniProt Q07912); details: Compound concentration 1000.0 nM

Question: With `CC(C)(C)OC(=O)N1CCCC1CNC1CCC(c2cc(F)ccc2F)(S(=O)(=O)c2ccc(Cl)cc2)CC1` (stereo not given) [GSI-NC] as the molecule, how does the Ki [1] read?
Answer: 653 nM

Question: Which residual activity [2] does the source give for `O=S(=O)(NC1CCC(c2cc(F)ccc2F)(S(=O)(=O)c2ccc(Cl)cc2)CC1)C(F)(F)F` (stereo not given) [MRK-560] here?
Answer: 88%

Question: And the residual activity [3]?
Answer: 100%

Question: And the residual activity [4]?
Answer: 100%

Question: And the residual activity [5]?
Answer: 80%

Question: And the residual activity [6]?
Answer: 100%

Question: And the residual activity [7]?
Answer: 100%

Question: And the residual activity [8]?
Answer: 100%

Question: What about the residual activity [9] of the same molecule?
Answer: 100%

Question: And the residual activity [10]?
Answer: 86%

Question: What about the residual activity [11] of the same molecule?
Answer: 95%

Question: What about the residual activity [12] of the same molecule?
Answer: 100%

Question: What about the residual activity [13] of the same molecule?
Answer: 88%

Question: What about the residual activity [14] of the same molecule?
Answer: 97%

Question: What about the residual activity [15] of the same molecule?
Answer: 91%

Question: What about the residual activity [16] of the same molecule?
Answer: 92%

Question: And the residual activity [17]?
Answer: 100%

Question: And the residual activity [18]?
Answer: 95%

Question: And the residual activity [19]?
Answer: 93%

Question: And the residual activity [20]?
Answer: 84%

Question: What about the residual activity [21] of the same molecule?
Answer: 100%

Question: And the residual activity [22]?
Answer: 100%

Question: And the residual activity [23]?
Answer: 98%

Question: And the residual activity [24]?
Answer: 100%

Question: What about the residual activity [25] of the same molecule?
Answer: 100%

Question: What about the residual activity [26] of the same molecule?
Answer: 100%

Question: And the residual activity [27]?
Answer: 100%

Question: What about the residual activity [28] of the same molecule?
Answer: 83%

Question: What about the residual activity [29] of the same molecule?
Answer: 100%

Question: And the residual activity [30]?
Answer: 100%

Question: And the residual activity [31]?
Answer: 94%

Question: What about the residual activity [32] of the same molecule?
Answer: 91%

Question: What about the residual activity [33] of the same molecule?
Answer: 91%

Question: And the residual activity [34]?
Answer: 94%

Question: And the residual activity [35]?
Answer: 82%

Question: What about the residual activity [36] of the same molecule?
Answer: 80%

Question: And the residual activity [37]?
Answer: 100%

Question: And the residual activity [38]?
Answer: 100%

Question: And the residual activity [39]?
Answer: 100%

Question: What about the residual activity [40] of the same molecule?
Answer: 100%

Question: And the residual activity [41]?
Answer: 95%

Question: What about the residual activity [42] of the same molecule?
Answer: 100%

Question: And the residual activity [43]?
Answer: 93%

Question: And the residual activity [44]?
Answer: 91%

Question: What about the residual activity [45] of the same molecule?
Answer: 96%
